This passage reports IC50 results from patent US20170037028A1 (BAYER PHARMA AKTIENGESELLSCHAFT, priority 2013, published 2017).

The test concerns the target T1, GLUT1 (Homo sapiens, UniProt P11166).
T1 sequence (P11166 1-492): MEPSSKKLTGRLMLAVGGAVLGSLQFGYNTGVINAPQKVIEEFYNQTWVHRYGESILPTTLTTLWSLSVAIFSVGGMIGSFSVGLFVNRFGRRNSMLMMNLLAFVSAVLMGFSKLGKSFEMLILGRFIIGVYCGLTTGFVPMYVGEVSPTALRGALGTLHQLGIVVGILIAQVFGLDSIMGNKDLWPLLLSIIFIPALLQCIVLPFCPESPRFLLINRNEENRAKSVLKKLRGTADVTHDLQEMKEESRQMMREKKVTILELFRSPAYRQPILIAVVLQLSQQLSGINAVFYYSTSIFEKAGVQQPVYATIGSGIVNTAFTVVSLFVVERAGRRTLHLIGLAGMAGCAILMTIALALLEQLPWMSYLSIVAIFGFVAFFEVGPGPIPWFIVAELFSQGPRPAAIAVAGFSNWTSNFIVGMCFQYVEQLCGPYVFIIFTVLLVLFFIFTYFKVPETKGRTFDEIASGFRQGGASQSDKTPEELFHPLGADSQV
The experiment in a line: Indirect measurement of GLUT1 activity by quantification of intracellular ATP levels (glucose induced ATP increase). Conditions: read-out: IC50 regarding glucose induced ATP increase (GLUT1 inhibition). It is filed as cell-based. Also on record: endogenous in cells; host or cells: DLD1 or CHO-K1. In a few lines:
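DLD1 or CHO-K1 cells were starved overnight in glucose-free medium with 1% FCS, then combined with an oxidative phosphorylation inhibitor. GLUT1 activity was read as glucose-induced ATP increase, GLUT2 as fructose-induced. Intracellular ATP was quantified by CellTiter-Glo luminescence.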
The term IC50 denotes the concentration at which inhibition is half-maximal. Take `Cc1nn(Cc2ccc(F)cc2)c(C)c1NC(=O)c1cc(Cl)nc2ccccc12` [Example 99, 2-chloro-N-[1-(4-fluorobenzyl)-3,5-dimethyl-1H-pyrazol-4-yl]quinoline-4-carboxamide]: the half-inhibitory concentration (IC50) stood at 364 nM.

As for `Cc1nn(Cc2ccc(F)cc2)c(C)c1NC(=O)c1cc(C2CC2)nc2cc(Br)ccc12` [Example 100, 7-bromo-2-cyclopropyl-N-[1-(4-fluorobenzyl)-3,5-dimethyl-1H-pyrazol-4-yl]quinoline-4-carboxamide], the IC50 came to 371 nM.

Turning to `Cc1cccc(Cn2nc(C)c(NC(=O)c3cc(C)nc4ccc(C)cc34)c2C)c1` [Example 101, N-[3,5-dimethyl-1-(3-methylbenzyl)-1H-pyrazol-4-yl]-2,6-dimethylquinoline-4-carboxamide], the IC50 is 396 nM.

For the compound `Cc1cc(C#N)c2nc(C(F)(F)F)cc(C(=O)Nc3c(C)nn(Cc4ccc(F)cc4)c3C)c2c1` [Example 102, 8-cyano-N-[1-(4-fluorobenzyl)-3,5-dimethyl-1H-pyrazol-4-yl]-6-methyl-2-(trifluoromethyl)quinoline-4-carboxamide], the 50% inhibitory concentration (IC50) amounted to 446 nM.

Take `Cc1nn(Cc2ccc(F)cc2)c(C)c1NC(=O)c1cc(C(F)(F)F)nc2ccc(C#N)cc12` [Example 103, 6-cyano-N-[1-(4-fluorobenzyl)-3,5-dimethyl-1H-pyrazol-4-yl]-2-(trifluoromethyl)quinoline-4-carboxamide]: the IC50 was 462 nM.

As to `Cc1nn(Cc2cccc(F)c2)c(C)c1NC(=O)c1cc(C(F)(F)F)nc2c(Cl)cc(Cl)cc12` [Example 104, 6,8-dichloro-N-[1-(3-fluorobenzyl)-3,5-dimethyl-1H-pyrazol-4-yl]-2-(trifluoromethyl)quinoline-4-carboxamide], the IC50 is 519 nM.

For `Cc1cc(C(=O)Nc2c(C)nn(Cc3ccc(F)cc3)c2C)c2ccccc2n1` [Example 105, N-[1-(4-fluorobenzyl)-3,5-dimethyl-1H-pyrazol-4-yl]-2-methylquinoline-4-carboxamide], the IC50 was determined as 528 nM.

For the compound `Cc1nn(Cc2ccc(F)cc2)c(C)c1NC(=O)c1cc(C(F)(F)F)nc2cc(Cl)c(Cl)cc12` [Example 106, 6,7-dichloro-N-[1-(4-fluorobenzyl)-3,5-dimethyl-1H-pyrazol-4-yl]-2-(trifluoromethyl)quinoline-4-carboxamide], the IC50 worked out at 571 nM.

In the case of `Cc1ccc2nc(C)cc(C(=O)Nc3c(C)nn(Cc4ccc(C(F)(F)F)cc4)c3C)c2c1` [Example 107, N-{3,5-dimethyl-1-[4-(trifluoromethyl)benzyl]-1H-pyrazol-4-yl}-2,6-dimethylquinoline-4-carboxamide], the concentration for half-maximal inhibition (IC50) turned out to be 593 nM.

`Cc1nn(Cc2ccc(F)cc2)c(C)c1NC(=O)c1cc(C2CC2)nc2c(C(F)(F)F)cccc12` [Example 108, 2-cyclopropyl-N-[1-(4-fluorobenzyl)-3,5-dimethyl-1H-pyrazol-4-yl]-8-(trifluoromethyl)quinoline-4-carboxamide]: the half-maximal inhibitory concentration (IC50) was 671 nM.

`COc1cccc(Cn2nc(C)c(NC(=O)c3cc(C)nc4ccc(C)cc34)c2C)c1` [Example 109, N-[1-(3-methoxybenzyl)-3,5-dimethyl-1H-pyrazol-4-yl]-2,6-dimethylquinoline-4-carboxamide]: the IC50 came to 688 nM.

Turning to `COc1cc(C(=O)Nc2c(C)nn(Cc3ccccn3)c2C)c2ccccc2n1` [Example 110, N-[3,5-dimethyl-1-(pyridin-2-ylmethyl)-1H-pyrazol-4-yl]-2-methoxyquinoline-4-carboxamide], the IC50 was 708 nM.

For `Cc1ccc2nc(C)cc(C(=O)Nc3c(C)nn(Cc4ccccc4C)c3C)c2c1` [Example 111, N-[3,5-dimethyl-1-(2-methylbenzyl)-1H-pyrazol-4-yl]-2,6-dimethylquinoline-4-carboxamide], the half-maximal inhibitory concentration (IC50) came to 708 nM.

Consider `Cc1ccc2nc(C)cc(C(=O)Nc3c(C)nn(Cc4ccccc4F)c3C)c2c1` [Example 112, N-[1-(2-fluorobenzyl)-3,5-dimethyl-1H-pyrazol-4-yl]-2,6-dimethylquinoline-4-carboxamide], for which the IC50 was 771 nM.

As for `Cc1nn(Cc2cccc(OC(F)(F)F)c2)c(C)c1NC(=O)c1cc(C(F)(F)F)nc2ccc(Br)cc12` [Example 113, 6-bromo-N-{3,5-dimethyl-1-[3-(trifluoromethoxy)benzyl]-1H-pyrazol-4-yl}-2-(trifluoromethyl)quinoline-4-carboxamide], the 50% inhibitory concentration (IC50) stood at 813 nM.

Regarding `Cc1ccc2nc(C)cc(C(=O)Nc3c(C)nn(Cc4ccccc4C#N)c3C)c2c1` [Example 114, N-[1-(2-cyanobenzyl)-3,5-dimethyl-1H-pyrazol-4-yl]-2,6-dimethylquinoline-4-carboxamide], the IC50 is 833 nM.

For the compound `COc1cc(C(=O)Nc2c(C)nn(Cc3cccc(OC(F)(F)F)c3)c2C)c2ccccc2n1` [Example 115, N-{3,5-dimethyl-1-[3-(trifluoromethoxy)benzyl]-1H-pyrazol-4-yl}-2-methoxyquinoline-4-carboxamide], the half-inhibitory concentration (IC50) was 833 nM.

Turning to `Cc1cccnc1Cn1nc(C)c(NC(=O)c2cc(C(F)(F)F)nc3ccc(Br)cc23)c1C` [Example 116, 6-bromo-N-{3,5-dimethyl-1-[(3-methylpyridin-2-yl)methyl]-1H-pyrazol-4-yl}-2-(trifluoromethyl)quinoline-4-carboxamide], the IC50 is 889 nM.

Regarding `Cc1ccc2nc(C)cc(C(=O)Nc3c(C)nn(Cc4cccc(OC(F)(F)F)c4)c3C)c2c1` [Example 117, N-{3,5-dimethyl-1-[3-(trifluoromethoxy)benzyl]-1H-pyrazol-4-yl}-2,6-dimethylquinoline-4-carboxamide], the IC50 turned out to be 938 nM.

As for `Cc1nn(Cc2ccccc2C#N)c(C)c1NC(=O)c1cc(C(C)C)nc2ccc(Br)cc12` [Example 118, 6-bromo-N-[1-(2-cyanobenzyl)-3,5-dimethyl-1H-pyrazol-4-yl]-2-(propan-2-yl)quinoline-4-carboxamide], the IC50 worked out at 0.5 nM.

`Cc1nn(Cc2ccc(F)cc2)c(C)c1NC(=O)c1cc(C(N)=O)nc2ccc(Br)cc12` [Example 119, 6-bromo-N^4-[1-(4-fluorobenzyl)-3,5-dimethyl-1H-pyrazol-4-yl]quinoline-2,4-dicarboxamide]: the IC50 turned out to be 1.3 nM.

As for `Cc1nn(Cc2ccc(F)cc2)c(C)c1NC(=O)c1cc(C(N)=O)nc2cc(F)c(F)cc12` [Example 120, 6,7-difluoro-N^4-[1-(4-fluorobenzyl)-3,5-dimethyl-1H-pyrazol-4-yl]quinoline-2,4-dicarboxamide], the IC50 was 1.5 nM.

On to `Cc1nn(Cc2ccc(F)cc2)c(C)c1NC(=O)c1cc(C(F)(F)F)nc2cc(F)c(Cl)cc12` [Example 121, 6-chloro-7-fluoro-N-[1-(4-fluorobenzyl)-3,5-dimethyl-1H-pyrazol-4-yl]-2-(trifluoromethyl)quinoline-4-carboxamide], for which the IC50 is 1.7 nM.

Turning to `Cc1nn(Cc2ccc(F)cc2)c(C)c1NC(=O)c1cc(C(N)=O)nc2ccccc12` [Example 122, N^4-[1-(4-fluorobenzyl)-3,5-dimethyl-1H-pyrazol-4-yl]quinoline-2,4-dicarboxamide], the IC50 worked out at 1.9 nM.

For the compound `Cc1nn(Cc2ccc(F)c(F)c2)c(C)c1NC(=O)c1cc(C2CC2)nc2ccc(Br)cc12` [Example 123, 6-bromo-2-cyclopropyl-N-[1-(3,4-difluorobenzyl)-3,5-dimethyl-1H-pyrazol-4-yl]quinoline-4-carboxamide], the half-maximal inhibitory concentration (IC50) is 2 nM.

Consider `Cc1nn(Cc2ccc(F)cc2)c(C)c1NC(=O)c1cc(C(F)(F)F)nc2cc(F)c(Br)cc12` [Example 124, 6-bromo-7-fluoro-N-[1-(4-fluorobenzyl)-3,5-dimethyl-1H-pyrazol-4-yl]-2-(trifluoromethyl)quinoline-4-carboxamide], for which the IC50 was 2.3 nM.

Regarding `Cc1nn(Cc2ccc(F)cc2)c(C)c1NC(=O)c1cc(C2CC2)nc2ccc(Cl)cc12` [Example 125, 6-chloro-2-cyclopropyl-N-[1-(4-fluorobenzyl)-3,5-dimethyl-1H-pyrazol-4-yl]quinoline-4-carboxamide], the IC50 is 2.5 nM.

Turning to `Cc1nn(Cc2ccc(F)cc2)c(C)c1NC(=O)c1cc(C(N)=O)nc2c(Cl)cc(Cl)cc12` [Example 127, 6,8-dichloro-N^4-[1-(4-fluorobenzyl)-3,5-dimethyl-1H-pyrazol-4-yl]quinoline-2,4-dicarboxamide], the IC50 stood at 3.1 nM.

For `Cc1c(NC(=O)c2cc(C(N)=O)nc3ccccc23)c(C(F)(F)F)nn1Cc1ccc(F)c(F)c1` [Example 128, N^4-[1-(3,4-difluorobenzyl)-5-methyl-3-(trifluoromethyl)-1H-pyrazol-4-yl]quinoline-2,4-dicarboxamide], the half-maximal inhibitory concentration (IC50) came out at 3.3 nM.

`Cc1nn(Cc2ccc(F)c(F)c2)c(C)c1NC(=O)c1cc(C(C)C)nc2ccc(Br)cc12` [Example 129, 6-bromo-N-[1-(3,4-difluorobenzyl)-3,5-dimethyl-1H-pyrazol-4-yl]-2-(propan-2-yl)quinoline-4-carboxamide]: the IC50 came to 4.1 nM.

On to `Cc1c(NC(=O)c2cc(C(N)=O)nc3ccccc23)c(C(F)(F)F)nn1Cc1ccc(F)cc1` [Example 130, N^4-[1-(4-fluorobenzyl)-5-methyl-3-(trifluoromethyl)-1H-pyrazol-4-yl]quinoline-2,4-dicarboxamide], for which the half-maximal inhibitory concentration (IC50) stood at 4.6 nM.
